From US20120309796A1, “BENZOCYCLOHEPTENE ACETIC ACIDS” (priority 2011, published 2012) come the findings set out here.

In the test the target is T1, thromboxane A2 receptor (TP) (Homo sapiens, UniProt P21731).
T1 construct: using human platelets as the source of the receptor; from tissue; host or cells: human platelets (whole platelets, 5x10^7 per well)
T1 sequence (P21731 1-343): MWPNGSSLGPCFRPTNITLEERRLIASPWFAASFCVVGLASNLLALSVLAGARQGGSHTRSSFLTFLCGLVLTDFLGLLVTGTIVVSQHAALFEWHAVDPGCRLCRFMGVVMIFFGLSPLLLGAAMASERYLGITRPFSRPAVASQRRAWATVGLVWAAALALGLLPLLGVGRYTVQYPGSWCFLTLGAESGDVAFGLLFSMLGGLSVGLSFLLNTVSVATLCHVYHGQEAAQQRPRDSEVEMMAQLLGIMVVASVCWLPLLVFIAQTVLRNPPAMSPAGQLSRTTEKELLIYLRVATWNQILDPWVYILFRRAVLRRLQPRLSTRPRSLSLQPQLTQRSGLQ
In words: Human Thromboxane A2 Receptor Binding Assay. Conditions: human platelets; 10 nM [3H]SQ29548; 1 hour, room temperature. The text has this: The thromboxane A2 receptor (TP) plays a key role in hemostasis as its abnormality leads to bleeding disorders. To avoid the potential liability of bleeding disorders, the binding activity of certain compounds of the present invention against TP was monitored by a receptor binding assay using human platelets as the source of the receptor and [^3H]SQ29548 (generically named (5Z)-[5,6-^3H]-7-[(1S,2R,3R,4R)-3-[[2-[(phenylamino)carbonyl]hydrazinyl]methyl]-7-oxabicyclo[2.2.1]hept-2-yl]-5-heptenoic acid, from PerkinElmer Inc.) as the competing radioactive ligand.
The TP binding reactions (0.2 mL) were performed in 96-well plates at room temperature in PBS containing 5×10^7 platelets, 10 mM MgCl2, 0.06% BSA, 10 nM [^3H]SQ29548, and the test compound at various concentrations. […] The radioactivities bound to the platelets were determined using a microplate scintillation counter (TopCount® NXT, from PerkinElmer Inc.) after adding 50 μL of Microscint™ 20 scintillation fluid (from PerkinElmer Inc.) to each well of the filter plates. The radioactivity from non-specific binding was determined by replacing the compound with 10 μM of ramatroban (BAY-u3405, from Cayman Chemical Company) in the reaction mixtures. The radioactivity bound to the platelets in the absence of compound (total binding) was determined by replacing the compound with 0.25% of DMSO in the reaction mixture. […]

As a reminder, the IC50 is the midpoint of a concentration-inhibition curve. With `O=C(O)COc1cccc2c1CCCCC2NS(=O)(=O)c1cc(C(F)(F)F)cc(C(F)(F)F)c1` (centres unmarked) [Example 1, [5-(3,5-Bis-trifluoromethyl-benzenesulfonylamino)-6,7,8,9-tetrahydro-5H-benzocyclohepten-1-yloxy]-acetic acid], the IC50 is 642 nM. With `O=C(O)COc1cccc2c1CCCCC2NS(=O)(=O)c1cc(C(F)(F)F)cc(C(F)(F)F)c1` (single isomer, unassigned) [Example 46, [5-(3,5-Bis-trifluoromethyl-benzenesulfonylamino)-6,7,8,9-tetrahydro-5H-benzocyclohepten-1-yloxy]-acetic acid], the IC50 was 3610 nM.
